Source: patent publication US12005120B2, “Galnac conjugated modified oligonucleotides as miR-122 inhibitor having HCV antiviral activity with reduced hyperbilirubinemia side-effect” (Regulus Therapeutics Inc., priority 2018, dated 2024)
Like-named read-outs stand apart in the source and are kept apart here.

Experiments:
HCV GT1b replicon = assay: HCV replicon assay (Huh7 cells, luciferase reporter); format: cell-based, HCV genotype 1b
Text: An HCV replicon assay was used to determine the ability of anti-miR-122 compounds to inhibit the replication of HCV genotype 1b. In this assay, test compounds are introduced into Huh7 cells stably transfected with a HCV GT1b replicon containing a luciferase reporter gene. The luciferase reporter is used as an indirect measure of HCV replication. While a GalNAc-conjugated compound is expected to be preferable for treatment of HCV infection, due to the enhanced delivery to hepatocytes, some unconjugated compounds were tested.
Selected compounds were tested at nine concentrations ranging from 0.015 uM to 100 uM. GS-7977 (sofosbuvir) was included as a positive control. Cells were plated into 96-well plates at a density of 8,000 cells per well. Compound was added to the cells for a period of 72 hours. Luminescent signal in the supernatant was detected using the Bright-Glo reagent, and used to calculate the antiviral activity of each compound. The CellTiter-Fluor reagent was used to assess cell viability. The EC50 (concentration at which 50% inhibition was observed) was calculated.

cholesterol = assay: In vivo potency: cholesterol reduction; conditions: single subcutaneous dose (doses in umol/kg), blood after 7 days
Method: (§1) Only GalNAc-conjugated compounds were tested in this assay. Compounds were administered at molar equivalents with regard to the anti-miR portion of the compound. A single, subcutaneous dose of RG-101 was administered subcutaneously at doses ranging from 0.004 to 1.116 umol/kg. Other compounds were administered in a single subcutaneous dose at doses ranging from 0.006 to 1.942 umol/kg. After 7 days the study was terminated. Liver tissue was collected for measurement of ALDOA mRNA and drug levels. Kidney tissue was collected for measurement of drug levels. Blood was collected for measurement of cholesterol.

miR-122 [1] = assay: In vivo potency: liver ALDOA mRNA derepression; conditions: single subcutaneous dose, liver after 7 days; for ALDOA derepression ED50 Expt #1: fold change in ALDOA mRNA relative to saline
Method: Inhibition of miR-122 leads to an increase in ALDOA expression, thus ALDOA mRNA levels can be used to measure miR-122 inhibitory activity in vivo.
as §1
ALDOA mRNA levels were measured, by quantitative PCR, in RNA isolated from liver. The fold change in ALDOA mRNA, relative to saline, was used to calculate an ED50 (umol/kg) for each compound (“ND” indicates “not determined), as shown in Table 4.

miR-122 [2] = assay: Pharmacodynamic activity in liver after oral or s.c. administration (ALDOA); format: in vivo, mice; conditions: 30 mg/kg s.c. in PBS, single dose, four days later
Method: An experiment was performed to determine whether oral administration of RG6650 would results in pharmacodynamic modulation of miR-122 in liver. Also tested was RG7443, the unconjugated anti-miR of RG6650. While an unconjugated anti-miR-122 is not as effective as a GalNAc-conjugated for the inhibition of miR-122 in the treatment of HCV, it was included for comparison in the oral administration study.
(§2) Anti-miR compounds were delivered in PBS for subcutaneous administration. Orally administered anti-miR compounds were prepared in a solution of PBS and 0.3 M sodium bicarbonate (BC) was added to a pH of 9.5. For oral dosing, animals were fasted for 12 hours prior. For all treatment groups, mice were administered a single dose and sacrificed four days later. Liver tissue was collected for pharmacodynamic and pharmacokinetic analyses. RNA was isolated from liver and kidney. […] in the liver was measured.

[3] = Anti-miR amounts in liver tissue after oral or s.c. administration; format: in vivo, mice; conditions: single dose, four days later
Method: as §2

MRP2 transporter = molecular target: T1, MRP2 transporter (Homo sapiens, UniProt Q92887); assay: In vitro MRP2 transporter assay (inside-out membrane vesicles, [3H]-estradiol-17β-glucuronide); format: in vitro ADME
T1 construct: expressed in transfected cells; host or cells: insect cells (transiently transfected); inside-out membrane vesicles
Method: To test the hypothesis that RG-101 was interfering with MRP2 transporter activity, an in vitro assay was performed per methods known in the art (see, for example, Vermeer et al., Drug Metab. Dispos., 2016, 44(3):453-9). In this assay, an efflux transporter-expressing vesicle is used to evaluate if a drug is a substrate or inhibitor of a transporter. Inside-out membrane vesicles are prepared from insect cells transiently transfected with a single efflux transporter, in this case MRP2. As the vesicles are in an inside-out orientation, the MRP2 transporter pumps radiolabeled substrate, [3H]-estradiol-17β-glucuronide, in an ATP-dependent manner, into the vesicles, and the accumulation of radiolabeled substrate inside the vesicle is measured. If a compound is an MRP2 transport inhibitor, the accumulation of radiolabeled substrate will be reduced relative to control samples. The inhibitory effect of the compound is evaluated by determining the IC50, the concentration resulting in 50% inhibition of transporter-mediated uptake of the radiolabeled substrate.
The in vitro MRP2 assay was performed for RG-101. Both RG-101, and RG1649, the unconjugated anti-miR of RG-101, were tested at concentrations of 0, 0.1, 0.3, 1, 3, 10, 30, and 100 uM. […] Thus, RG-101 inhibited the MPR2 transporter in this assay.
The MRP2 assay was performed for anti-miR-122 compounds selected based on potency in the HCV replicon assay and structural diversity.

IFIT = assay: In vivo safety: liver expression of interferon-inducible gene IFIT
Method: The compounds that met the criteria for in vivo potency were also tested for safety. The capacity of a compound to trigger a pro-inflammatory response was assessed by measuring the expression of the interferon-inducible gene IFIT in the liver. Additionally, the level of ALT following administration of a compound was also measured.

miR-122 [4] = assay: Free uptake in primary human hepatocyte 3D spheroids, ALDOA by RT-PCR; format: cell-based
HCV genotype 1a = assay: Human chimeric liver mouse model of HCV infection, serum HCV RNA; format: in vivo, mice; conditions: RG6650 60 mg/kg, single administration
Text: Due to host-pathogen specificity, HCV can only infect humans and chimpanzees. As such, smaller species, such as mice, that are typically used for experimental in vivo studies cannot be infected with HCV for testing of candidate agents for the treatment of HCV infection. To address this problem, human liver chimeric mouse models may be utilized (see, e.g., Bissig et al., Proc Nat Acad Sci US A, 2007, 104:20507-20511; Bissig et al., J Clin Invest., 2010, 120: 924-930). In this model, the livers of immunodeficient mice are repopulated with human hepatocytes, resulting in a chimeric liver in which most of the hepatocytes are human hepatocytes. The mice are then infected with HCV and treated with anti-HCV agents. This mouse model is commercially available from, for example, PhoenixBio.
Anti-miR-122 compounds were tested in a human chimeric liver mouse model of HCV infection. The livers of immunodeficient mice were repopulated with human hepatocytes, resulting in a chimeric liver in which most of the hepatocytes are human hepatocytes. Six weeks following inoculation with HCV genotype 1a, a baseline viral titer was obtained for each animal included in the study.
Groups of four animals each were treated with PBS, RG-101 at a dose of 45 mg/kg, or RG6650 at a dose of 60 mg/kg. Blood was collected on Days 3, 7, 10, 14, 21, 28, 35, 42, and 49. The study was terminated on day 49.

miR-122 [5] = assay: Onset of action: liver ALDOA mRNA de-repression; format: in vivo, mice; conditions: 0.014 to 1.117 umol/kg; liver 1, 3, 7 or 14 days after administration; relative to RG2634
Method: To determine whether RG6650 and RG2634 could be distinguished by onset of action, groups of mice were treated with compound at doses ranging from 0.014 to 1.117 umol/kg. Liver tissue was collected from groups of 4 to 5 mice 1, 3, 7, or 14 days following administration. RNA was isolated and ALDOA mRNA was measured.

HCV = conditions: chronic treatment naïve HCV infected subjects; cited from earlier work
[6] = 72 hours, Expt #1, read-out: EC50 uM Expt #1
[7] = MRP2 transporter assay, Expt #2, read-out: IC50 uM Expt #2

T1 sequence (Q92887 whole entry): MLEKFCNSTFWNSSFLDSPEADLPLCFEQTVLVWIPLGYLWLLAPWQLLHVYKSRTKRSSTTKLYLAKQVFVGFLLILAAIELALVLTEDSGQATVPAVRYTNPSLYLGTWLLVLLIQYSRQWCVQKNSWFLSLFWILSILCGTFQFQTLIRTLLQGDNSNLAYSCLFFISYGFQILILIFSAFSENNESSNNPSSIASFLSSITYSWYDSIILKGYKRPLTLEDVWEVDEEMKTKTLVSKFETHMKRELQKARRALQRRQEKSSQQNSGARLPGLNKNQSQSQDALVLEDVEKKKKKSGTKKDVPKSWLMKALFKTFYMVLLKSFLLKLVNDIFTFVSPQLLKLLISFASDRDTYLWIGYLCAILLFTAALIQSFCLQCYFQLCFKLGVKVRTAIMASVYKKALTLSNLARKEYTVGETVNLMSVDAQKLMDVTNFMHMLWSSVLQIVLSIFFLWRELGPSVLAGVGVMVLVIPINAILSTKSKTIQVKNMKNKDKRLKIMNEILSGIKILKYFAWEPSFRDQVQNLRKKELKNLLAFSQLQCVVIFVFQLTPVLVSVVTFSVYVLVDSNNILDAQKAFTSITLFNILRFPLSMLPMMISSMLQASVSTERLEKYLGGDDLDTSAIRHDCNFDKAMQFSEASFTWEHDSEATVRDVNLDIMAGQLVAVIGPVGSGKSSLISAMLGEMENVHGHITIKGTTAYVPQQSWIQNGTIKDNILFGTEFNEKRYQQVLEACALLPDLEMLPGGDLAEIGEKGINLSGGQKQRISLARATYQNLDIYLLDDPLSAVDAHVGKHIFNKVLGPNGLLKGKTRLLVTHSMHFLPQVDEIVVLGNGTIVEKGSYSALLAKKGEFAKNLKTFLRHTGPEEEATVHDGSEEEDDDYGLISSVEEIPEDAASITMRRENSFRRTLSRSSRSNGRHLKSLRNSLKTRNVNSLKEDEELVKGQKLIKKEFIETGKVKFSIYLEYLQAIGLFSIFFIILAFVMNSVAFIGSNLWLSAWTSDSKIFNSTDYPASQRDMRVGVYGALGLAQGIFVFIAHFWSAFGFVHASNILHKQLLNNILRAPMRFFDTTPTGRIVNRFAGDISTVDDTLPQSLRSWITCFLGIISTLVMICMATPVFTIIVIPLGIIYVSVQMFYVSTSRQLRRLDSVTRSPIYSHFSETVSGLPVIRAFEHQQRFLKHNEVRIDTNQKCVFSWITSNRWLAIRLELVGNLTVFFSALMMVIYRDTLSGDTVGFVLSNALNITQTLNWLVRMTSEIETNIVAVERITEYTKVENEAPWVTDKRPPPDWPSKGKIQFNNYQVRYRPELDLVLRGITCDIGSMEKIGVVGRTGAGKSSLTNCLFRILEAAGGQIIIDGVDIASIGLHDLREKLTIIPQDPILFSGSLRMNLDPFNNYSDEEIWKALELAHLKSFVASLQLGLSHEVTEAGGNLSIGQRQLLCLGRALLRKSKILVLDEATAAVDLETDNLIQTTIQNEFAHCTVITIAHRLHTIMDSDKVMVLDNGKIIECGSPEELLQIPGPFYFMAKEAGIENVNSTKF

Compound: CC(C)OC(=O)[C@H](C)N[P@](=O)(OC[C@H]1O[C@@H](n2ccc(=O)[nH]c2=O)[C@](C)(F)[C@@H]1O)Oc1ccccc1 [GS-7977, sofosbuvir, reference compound]
- EC50 (HCV GT1b replicon; Hepatitis C virus, GT1B, Huh-7, 72 hours, Expt #1, read-out: EC50 uM Expt #1): 0.149 µM
- EC50 (HCV GT1b replicon; Hepatitis C virus, GT1B, Huh-7, 72 hours, Expt #2, read-out: EC50 uM Expt #2): 0.098 µM

Compound: USCSAS^POCS^POAS^POCS^POUSCSCS [RG6372]
- Cholesterol reduction ED50 Expt #1 (cholesterol): 0.8088
- ALDOA derepression ED50 Expt #1 (miR-122 [1]): 0.028 µmol/kg
- EC50 (HCV GT1b replicon; [6]): > 100 µM

Compound: UsCsACsACsTCsCs [RG7443]
- Liver PD Sig (miR-122 [2]): 1.945
- Liver Mean (anti-miR amount) ([3]; 30 mg/kg s.c. in PBS): 1.48 µg/g
- Liver Mean (anti-miR amount) ([3]; 100 mg/kg p.o. in BC): <0.4 µg/g

Compound: CSASCSASCSUSCSCSAS [RG6234]
- EC50 (HCV GT1b replicon; [6]): 17.4 µM
- IC50 (MRP2 transporter; [7]): > 100 µM

Compound: CSASCSASCSUSCSCS [RG497998]
- EC50 (HCV GT1b replicon; [6]): 7.71 µM

Compound: CSASCSASCSUSCSCS [RG2634]
- Cholesterol reduction ED50 Expt #1 (cholesterol): 0.011
- ALDOA derepression ED50 Expt #1 (miR-122 [1]): 0.029 µmol/kg
- EC50 (HCV GT1b replicon; [6]): 22.5 µM
- IC50 (MRP2 transporter; [7]): > 100 µM

Compound: CsASCSASCSUSCSCSAS [RG6370]
- Cholesterol reduction ED50 Expt #1 (cholesterol): 0.0007
- ALDOA derepression ED50 Expt #1 (miR-122 [1]): 6.51 µmol/kg
- EC50 (HCV GT1b replicon; [6]): 60.9 µM
- Expression of IFIT in the liver (pro-inflammatory response) (IFIT): increased the expression of IFIT
- IC50 (MRP2 transporter; [7]): > 100 µM

Compound: CSASCS^POAS^POCS^POUS^POCSCSAS [RG6371]
- Cholesterol reduction ED50 Expt #1 (cholesterol): 1.116
- ALDOA derepression ED50 Expt #1 (miR-122 [1]): 0.086 µmol/kg
- EC50 (HCV GT1b replicon; [6]): 34.1 µM

Compound: USCSACSACSTCSCS [RG6650]
- EC50 (miR-122 [4]; 3D PHH spheroids, three days treatment, read-out: EC50 (ALDOA levels)): 0.00207 µM
- Decrease of EC50 by the GalNAc conjugate (miR-122 [4]; RG6650 compared to RG7443): ~1000 fold
- Cholesterol reduction ED50 Expt #2 (cholesterol; Expt #2): 0.025
- Reduction in serum HCV RNA (HCV genotype 1a): greater than 2 log
- Viral titer, serum HCV RNA (HCV genotype 1a; RG-101 45 mg/kg, up to day 49, FIG. 1): significant reductions in viral titer
- Onset of action by ALDOA mRNA de-repression (miR-122 [5]): increased de-repression of ALDOA mRNA at a lower dose and earlier time point
- ALDOA derepression ED50 Expt #2 (miR-122 [1]; Expt #2): 0.091 µmol/kg
- EC50 (HCV GT1b replicon; 72 hours, Expt #2, read-out: EC50 uM Expt #2): 11.3 µM
- IC50 (MRP2 transporter; MRP2 transporter assay, Expt #1, read-out: IC50 uM Expt #1): > 100 µM
- IC50 (MRP2 transporter; assay conducted multiple times, read-out: MRP2 IC50 range over multiple studies): > 100 µM
- Liver PD Sig (miR-122 [2]): 1.704

Compound: USCSASCSASCSUSCSCS [RG3054]
- Cholesterol reduction ED50 Expt #1 (cholesterol): .08152
- EC50 (HCV GT1b replicon; [6]): > 100 µM
- Expression of IFIT in the liver (pro-inflammatory response) (IFIT): increased the expression of IFIT
- IC50 (MRP2 transporter; [7]): > 100 µM

Compound: miravirsen
- Serum HCV RNA (HCV): reduction in serum HCV RNA
